Test results from BindingDB's records for doi:10.1016/S0960-894X(01)81219-1 (1993).

Test: The inhibitory constant was evaluated against Endothelin A receptor in rabbit renal artery tissue

In the case of `CC[C@H](C)[C@H](NC(=O)[C@H](CC(=O)O)NC(=O)[C@H](CCCN)NC(=O)[C@@H](Cc1c[nH]c2ccccc12)NC(C)=O)C(=O)N[C@H](C(=O)N[C@@H](Cc1c[nH]c2ccccc12)C(=O)O)[C@@H](C)CC` [(S)-3-{(S)-2-[(R)-2-Acetylamino-3-(1H-indol-3-yl)-propionylamino]-5-amino-pentanoylamino}-N-((1S,2R)-1-{(1S,2R)-1-[(S)-1-carboxy-2-(1H-indol-3-yl)-ethylcarbamoyl]-2-methyl-butylcarbamoyl}-2-methyl-butyl)-succinamic acid], the IC50 is reported as 130 nM.
